≈ marks a conversion by molar mass, not a printed value.
Key:
[1] = test system: Acinetobacter baumannii ATCC BAA1605 (carbapenem-resistant); assay: MIC broth microdilution, A. baumannii ATCC BAA1605; type: cell-based; details: for MIC: Acinetobacter baumannii, ATCCBAA1605, MDR, overnight incubation
Method: (§1) Antibacterial activity: The compounds were tested for the minimum inhibitory concentrations (MIC), which is the lowest concentration of a chemical required to inhibit visible microbial growth following overnight incubation. MIC values were determined using broth microdilution method according to the Clinical and Laboratory Standards Institute guidelines (CLSI, 2015, M07-A10). Mueller-Hinton broth was used as a culture medium in all the experiments. Exponentially growing bacterial cells were prepared in Mueller-Hinton broth at a concentration of approximately 5×10^5 CFU/mL. Two-fold serial dilutions of the test compound (8 concentrations ranged between 100-0.78 μg/mL) were tested. […] In each experiment, solvent (DMSO) was used as a negative control, un-treated control (composing of bacteria in Mueller-Hinton broth) was used as a growth control, blank (culture media alone) was used as sterility control. The 96-well microplate with the test compounds was incubated overnight at 37° C. Turbidity in wells indicated bacterial growth.
(§2) The compounds were tested on six MDR Gram-positive bacteria including three clinical isolates of methicillin-resistant Staphylococcus aureus (MRSA-1, MRSA-2 and MRSA-3) and three reference MRSA strains (ATCC33591, ATCC33592 and ATCC700699). They were also tested on three MDR Gram-negative bacteria including New Delhi metallo-beta-lactamase (NDM-1) positive, carbapenem-resistant E. coli (ATCC BAA2469), extended-spectrum beta-lactamase (ESBL) producing, colistin-resistant E. coli (CDC-AR-0346) and carbapenem-resistant Acinetobacter baumannii (ATCC BAA1605), in addition to two non-MDR bacteria from the same species, namely E. coli (ATCC 25922) Acinetobacter baumannii (ATCC 19606).

[2] = test system: E. coli ATCC BAA2469 (NDM-1 carbapenem-resistant); assay: MIC broth microdilution, E. coli ATCC BAA2469; type: cell-based, Escherichia coli; details: overnight incubation; for MIC: Escherichia coli, ATCCBAA2469, MDR
Method: as §1, §2

HEP3B = assay: MTT cell viability, HEP3B; type: cell-based; details: Homo sapiens, liver cancer, 48 h of drug treatment, average of three experiments
Description: (§3) Cell culture: In this study five different cancer cell lines were used, human lung carcinoma (A549), human breast adenoma (MCF-7), Cervical carcinoma (Hela), hepatocellular carcinoma (Hep3B), and colorectal adenocarcinoma (HCT-116). These cells were obtained from the European Collection of Cell Cultures (ECACC, UK). Hep3B cells were maintained in Dulbecco's Modified Eagle Medium (DMEM: Sigma-Aldrich), and the four other cell lines were maintained in Roswell Park Memorial Institute medium (RPMI, Sigma-Aldrich, St. Louis, Mo., USA), which was supplemented with 10% fetal bovine serum (FBS, Sigma-Aldrich) and 1% penicillin/streptomycin (Sigma-Aldrich). Cells were incubated all the time at 37° C. in a humidified atmosphere of 5% CO2. Cell viability studies: Cell viability was assessed using the MTT assay as described before. In brief, all cancer cell lines were seeded at a density of 4×10^4/well in 96 well flat-bottom plates. After 24 h from seeding, cells were treated with the synthesized compounds and left for an incubation period of 48 h. Upon reaching the indicated time point, the media was removed and replaced with 200 μL fresh media containing 0.5 mg/mL of MTT tetrazolium dye (Sigma-Aldrich). Cells were then incubated with MTT solution for 2 h at 37° C. The resultant formazan crystals were dissolved in 200 μl/well of DMSO and absorbance was measured at 570 nm using a microplate reader (Thermo Scientific).

[3] = test system: MRSA-3 (clinical isolate); assay: MIC broth microdilution, MRSA-3; type: cell-based, Staphylococcus aureus; details: Staphylococcus aureus, MRSA; overnight incubation, Mueller-Hinton broth; read-out: MIC MRSA-3 (clinical isolate)
Method: as §1, §2

[4] = test system: MRSA-1 (clinical isolate); assay: MIC broth microdilution, MRSA-1; type: cell-based, Staphylococcus aureus; details: Staphylococcus aureus, MRSA; overnight incubation, Mueller-Hinton broth; read-out: MIC MRSA-1 (clinical isolate)
Method: as §1, §2

MRSA-ATCC33591 = assay: MIC broth microdilution, MRSA ATCC33591; type: cell-based, Staphylococcus aureus; details: Staphylococcus aureus; overnight incubation, Mueller-Hinton broth; read-out: MIC MRSA-ATCC33591
Method: as §1, §2

MRSA-ATCC33592 = assay: MIC broth microdilution, MRSA ATCC33592; type: cell-based, Staphylococcus aureus; details: Staphylococcus aureus; overnight incubation, Mueller-Hinton broth; read-out: MIC MRSA-ATCC33592
Method: as §1, §2

MRSA-ATCC700699 (VISA) = assay: MIC broth microdilution, MRSA ATCC700699 (VISA); type: cell-based, Staphylococcus aureus; details: for MIC: Staphylococcus aureus, strain intermediately resistant to vancomycin, overnight incubation, read-out: MIC MRSA-ATCC700699 (VISA)
Method: as §1, §2

[5] = test system: MRSA-2 (clinical isolate); assay: MIC broth microdilution, MRSA-2; type: cell-based, Staphylococcus aureus; details: Staphylococcus aureus, MRSA; overnight incubation, Mueller-Hinton broth; read-out: MIC MRSA-2 (clinical isolate)
Method: as §1, §2

A549 = assay: MTT cell viability, A549; type: cell-based; details: Homo sapiens, lung cancer, 48 h of drug treatment, average of three experiments
Description: as §3

[6] = test system: E. coli CDC-AR-0346 (ESBL, colistin resistant); assay: MIC broth microdilution, E. coli CDC-AR-0346; type: cell-based, Escherichia coli; details: for MIC: Escherichia coli, MDR, overnight incubation
Method: as §1, §2

MCF-7 = assay: MTT cell viability, MCF-7; type: cell-based; details: Homo sapiens, MCF7; breast cancer; 48 h of drug treatment; average of three experiments
Description: as §3

6 MRSA strains = assay: MIC, panel of 6 MRSA strains; type: cell-based; details: Staphylococcus aureus, across the panel of tested Gram-positive strains, read-out: MIC against all the 6 MRSA strains
Method: as §1, §2

[7] = test system: Acinetobacter baumannii ATCC 19606; assay: MIC broth microdilution, A. baumannii ATCC 19606; type: cell-based; details: Acinetobacter baumannii, ATCC19606; not MDR; overnight incubation
Method: as §1, §2

E. coli ATCC25922 = assay: MIC broth microdilution, E. coli ATCC25922; type: cell-based, Escherichia coli; details: Escherichia coli, ATCC25922; not MDR; overnight incubation
Method: as §1, §2

HCT-116 = assay: MTT cell viability, HCT-116; type: cell-based; details: Homo sapiens, colon cancer, 48 h of drug treatment, average of three experiments
Description: as §3

HELA = assay: MTT cell viability, HELA; type: cell-based; details: Homo sapiens, cervical cancer, 48 h of drug treatment, average of three experiments
Description: as §3

MDR E. coli strains = assay: MIC, both MDR E. coli strains; type: cell-based; details: Escherichia coli, ATCCBAA2469; across ATCC BAA2469 and CDC-AR-0346
Method: as §1
The compounds were tested on six MDR Gram-positive bacteria including three clinical isolates of methicillin-resistant Staphylococcus aureus (MRSA-1, MRSA-2 and MRSA-3) and three reference MRSA strains (ATCC33591, ATCC33592 and ATCC700699). […]

SKOV3 = assay: MTT cell viability, SKOV3; type: cell-based; details: Homo sapiens, SK-OV-3; 48 h of drug treatment; average of three experiments
Method: (§4) Cell viability studies: Cell viability was assessed using the MTT assay as described before. In brief, all cancer cell lines were seeded at a density of 4×10^4/well in 96 well flat-bottom plates. After 24 h from seeding, cells were treated with the synthesized compounds and left for an incubation period of 48 h. Upon reaching the indicated time point, the media was removed and replaced with 200 μL fresh media containing 0.5 mg/mL of MTT tetrazolium dye (Sigma-Aldrich). Cells were then incubated with MTT solution for 2 h at 37° C. The resultant formazan crystals were dissolved in 200 μl/well of DMSO and absorbance was measured at 570 nm using a microplate reader (Thermo Scientific).

MDA-MB-231 = assay: MTT cell viability, MDA-MB-231; type: cell-based; details: Homo sapiens, breast cancer, 48 h of drug treatment, average of three experiments
Method: as §4

SKBR3 = assay: MTT cell viability, SKBR3; type: cell-based; details: Homo sapiens, SK-BR-3; breast cancer; 48 h of drug treatment; average of three experiments
Method: as §4

JIMT1 = assay: MTT cell viability, JIMT1; type: cell-based; details: Homo sapiens, JIMT-1; breast cancer; 48 h of drug treatment; average of three experiments
Method: as §4

AGS = assay: MTT cell viability, AGS; type: cell-based; details: Homo sapiens, stomach cancer, 48 h of drug treatment, average of three experiments
Method: as §4

Hela cells = assay: Western blot, autophagy- and iron metabolism-related proteins, Hela; type: cell-based, human
Method: Western Blotting (autophagy- and iron metabolism-related proteins): Cells were grown in DMEM supplemented with 10% FBS and 1×PEST (Penicillin and streptomycin antibiotics) at 37° C. in incubator having humidified atmosphere with 5% CO2. The media were removed and cells were washed twice with 1× cold PBS. Cells lysis was performed with RIPA lysis buffer containing (150 mM sodium chloride, 1.0% NP-40, 0.1% SDS, 50 mM Tris pH 8.0, 0.5% sodium deoxycholate supplemented with protease inhibitors cocktail). Cells were kept on icebox during the lysis process. Cold lysis buffer was added to each well directly and then cells were scraped and collected in 1.5 ml Eppendorf tube. Cell lysis was kept on icebox for 20 minutes and then centrifuged at 4° C. for 10 minutes. The supernatant was collected and the pellet was discarded. After, protein quantification, samples were boiled in 5× loading buffer at 95° C. for 5 minutes. After completion of the gel running and transfer process, the membrane was stained with ponceau solution. After that, the membrane was washed with 1×TBST and then blocked in 5% non-fat dry milk for 1 hr at room temperature. The membrane was washed 3 times with 1×TBST and then incubated with indicated primary antibodies at 4° C. overnight. Primary antibodies were removed; the membrane was washed 3 times with 1×TBST and then incubated with secondary antibodies for 2 h at room temperature. Secondary antibodies were diluted in 5% non-fat dry milk in 1× TB ST. After removal of the secondary antibody, the membrane was washed 3 times with 1×TBST. The membrane was incubated in ECL solution and the signal was developed using Gel Doc system from Biorad.

MDA-MB-468 = assay: MTT cell viability, MDA-MB-468; type: cell-based; details: Homo sapiens, breast cancer, 48 h of drug treatment, average of three experiments
Method: as §4

[8] = test system: normal epithelial cells (HMEC); assay: Cell viability, normal epithelial cells; type: cell-based; details: Homo sapiens, 48 h of drug treatment, average of three experiments
Method: as §4

SMILES	MIC [1] [µg/mL]	MIC [2] [µg/mL]	IC50 (HEP3B) [µM]	MIC [3] [µg/mL]	MIC [4] [µg/mL]	MIC (MRSA-ATCC33591) [µg/mL]	MIC (MRSA-ATCC33592) [µg/mL]	MIC (MRSA-ATCC700699 (VISA)) [µg/mL]	MIC [5] [µg/mL]	IC50 (A549) [µM]	MIC [6] [µg/mL]	IC50 (MCF-7) [µM]	MIC (6 MRSA strains) [µg/mL]	MIC [7] [µg/mL]	MIC (E. coli ATCC25922) [µg/mL]	IC50 (HCT-116) [µM]	IC50 (HELA) [µM]	MIC (MDR E. coli strains) [µg/mL]	also measured
Fc1ccc2c3c4n(c2c1)[C@@]1(C=C/C(=N\Nc2ccc(C(F)(F)F)cc2)CC1)CC[C@@H]4NCC3 [Compound 1g]	6.25 (≈ 13.3 µM)	6.25 to 12.5 (≈ 13.3 to 26.7 µM)	3.597 ± 0.03	1.56 (≈ 3.33 µM)	1.56 (≈ 3.33 µM)	1.56 (≈ 3.33 µM)	1.56 (≈ 3.33 µM)	1.56 (≈ 3.33 µM)	1.56 (≈ 3.33 µM)	7.44 ± 0.04	12.5 (≈ 26.7 µM)	5.34 ± 1.8	1.56 (≈ 3.33 µM)	6.25 (≈ 13.3 µM)	6.25 (≈ 13.3 µM)	3.02 ± 1.2	4.625 ± 0.04		MIC fold below that of meropenem ([1]; Acinetobacter baumannii ATCC BAA1605, meropenem 12.5 μg/mL): 2 fold; MIC E. coli ATCC BAA2469 (NDM-1 carbapenem-resistant) ([2]; MDR): 6.25 µg/mL (≈ 13.3 µM); MIC times less than the MIC of vancomycin (MRSA-ATCC700699 (VISA); VISA strain ATCC 700699, vancomycin 8 μg/mL): ~5 times; MIC fold higher than that of colistin ([6]; E. coli CDC-AR-0346, colistin 6.25 μg/mL): 2 fold
O=C(O)c1cn(C2CC2)c2cc(N3CCNCC3)c(F)cc2c1=O [Ciprofloxacin, reference compound]	50 (≈ 151 µM)	100 (≈ 302 µM)				0.3 (≈ 0.905 µM)	0.3 (≈ 0.905 µM)						0.3 to 32 (≈ 0.905 to 96.6 µM)	0.625 (≈ 1.89 µM)	< 0.02			16 to 100 (≈ 48.3 to 302 µM)	
O=[N+]([O-])c1ccc(N/N=C2\C=C[C@@]3(CC2)CC[C@@H]2NCCc4c2n3c2ccccc42)cc1 [Compound 1d]			2.32 ± 0.16	3.12 (≈ 7.31 µM)	3.12 (≈ 7.31 µM)	3.12 (≈ 7.31 µM)	3.12 (≈ 7.31 µM)	3.12 (≈ 7.31 µM)	3.12 (≈ 7.31 µM)	5.22 ± 0.03		3.09 ± 0.04				2.49 ± 0.02	3.14 ± 0.04		IC50 (SKOV3): 6.52 ± 0.2 µM; IC50 (MDA-MB-231): 4.22 ± 0.1 µM; IC50 (SKBR3): 3.93 ± 0.16 µM; IC50 (JIMT1): 4 ± 0.1 µM; IC50 (AGS): 5.37 ± 0.17 µM; Expression and metabolism of autophagy marker LC3B1/II (Hela cells): upregulate; Expression of DNA damage marker pH2AX (Hela cells): induce; IC50 (MDA-MB-468): 3.06 ± 0.17 µM; IC50 [8]: 42.04 ± 0.08 µM
NCC[C@H](O)C(=O)N[C@@H]1C[C@H](N)[C@@H](O[C@H]2O[C@H](CN)[C@@H](O)[C@H](O)[C@H]2O)[C@H](O)[C@H]1O[C@H]1O[C@H](CO)[C@@H](O)[C@H](N)[C@H]1O [Amikacin, reference compound]	1.25 (≈ 2.13 µM)	> 1000		2 (≈ 3.42 µM)	16 (≈ 27.3 µM)	50 (≈ 85.4 µM)	50 (≈ 85.4 µM)	100 (≈ 171 µM)	8 (≈ 13.7 µM)		> 1000		2 to 100 (≈ 3.42 to 171 µM)	10 (≈ 17.1 µM)	2.5 (≈ 4.27 µM)			> 1000	

— patent publication US11286258B2, “Nature-inspired anticancer and antibacterial motifs and pharmaceutical composition thereof” (University of Sharjah, priority 2020, dated 2022)
